Common to all, as to test: biochemical
What all share (type): biochemical

For test [1], the target named is T1, 382 unique human kinases (Homo sapiens, UniProt P07949, V804M).
T1 construct: purchased Reaction Biology (HotSpot contract assay)
To be noted: RET (V804M), 10 uM; for remaining activity at 10 µM: read-out: % Enzyme Activity (relative to DMSO controls).

Test [2] has as its target T2, 382 unique human kinases (Homo sapiens, UniProt O14920).
T2 construct: purchased Reaction Biology (HotSpot contract assay)
T2 sequence (O14920 1-756): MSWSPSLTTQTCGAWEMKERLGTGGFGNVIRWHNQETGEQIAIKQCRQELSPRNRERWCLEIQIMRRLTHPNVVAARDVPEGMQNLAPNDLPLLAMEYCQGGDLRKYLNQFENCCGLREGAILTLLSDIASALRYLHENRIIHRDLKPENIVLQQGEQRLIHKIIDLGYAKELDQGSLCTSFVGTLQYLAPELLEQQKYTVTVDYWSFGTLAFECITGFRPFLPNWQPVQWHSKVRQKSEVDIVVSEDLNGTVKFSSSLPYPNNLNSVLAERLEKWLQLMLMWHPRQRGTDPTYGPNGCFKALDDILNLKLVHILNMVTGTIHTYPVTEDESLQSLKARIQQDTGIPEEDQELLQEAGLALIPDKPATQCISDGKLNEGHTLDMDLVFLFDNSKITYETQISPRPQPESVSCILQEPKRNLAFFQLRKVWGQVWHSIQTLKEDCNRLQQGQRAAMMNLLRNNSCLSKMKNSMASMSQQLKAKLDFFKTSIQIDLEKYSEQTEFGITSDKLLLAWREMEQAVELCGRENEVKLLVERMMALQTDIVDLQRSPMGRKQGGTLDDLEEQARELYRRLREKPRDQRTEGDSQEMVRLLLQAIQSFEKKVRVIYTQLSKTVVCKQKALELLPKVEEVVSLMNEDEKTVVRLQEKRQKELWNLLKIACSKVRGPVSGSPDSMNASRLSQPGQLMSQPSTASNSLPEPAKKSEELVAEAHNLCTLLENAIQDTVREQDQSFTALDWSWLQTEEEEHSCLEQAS
To be noted: IKKb/IKBKB, 10 uM; for remaining activity at 10 µM: read-out: % Enzyme Activity (relative to DMSO controls).

For test [3], the target named is T3, 382 unique human kinases (Homo sapiens, UniProt P00533, L858R/T790M).
T3 construct: purchased Reaction Biology (HotSpot contract assay)
To be noted: EGFR (L858R, T790M), 10 uM; for remaining activity at 10 µM: read-out: % Enzyme Activity (relative to DMSO controls).

Test [4] has as its target T4, 382 unique human kinases (Homo sapiens, UniProt P08581, D1228N).
T4 construct: purchased Reaction Biology (HotSpot contract assay)
Conditions: c-MET (D1228N), compound at 10 uM, duplicate values; for remaining activity at 10 µM: read-out: % Enzyme Activity (relative to DMSO controls).

The target in test [5] is T5, 382 unique human kinases (Homo sapiens, UniProt Q6IQ55).
T5 construct: purchased Reaction Biology (HotSpot contract assay)
T5 sequence (Q6IQ55 whole entry): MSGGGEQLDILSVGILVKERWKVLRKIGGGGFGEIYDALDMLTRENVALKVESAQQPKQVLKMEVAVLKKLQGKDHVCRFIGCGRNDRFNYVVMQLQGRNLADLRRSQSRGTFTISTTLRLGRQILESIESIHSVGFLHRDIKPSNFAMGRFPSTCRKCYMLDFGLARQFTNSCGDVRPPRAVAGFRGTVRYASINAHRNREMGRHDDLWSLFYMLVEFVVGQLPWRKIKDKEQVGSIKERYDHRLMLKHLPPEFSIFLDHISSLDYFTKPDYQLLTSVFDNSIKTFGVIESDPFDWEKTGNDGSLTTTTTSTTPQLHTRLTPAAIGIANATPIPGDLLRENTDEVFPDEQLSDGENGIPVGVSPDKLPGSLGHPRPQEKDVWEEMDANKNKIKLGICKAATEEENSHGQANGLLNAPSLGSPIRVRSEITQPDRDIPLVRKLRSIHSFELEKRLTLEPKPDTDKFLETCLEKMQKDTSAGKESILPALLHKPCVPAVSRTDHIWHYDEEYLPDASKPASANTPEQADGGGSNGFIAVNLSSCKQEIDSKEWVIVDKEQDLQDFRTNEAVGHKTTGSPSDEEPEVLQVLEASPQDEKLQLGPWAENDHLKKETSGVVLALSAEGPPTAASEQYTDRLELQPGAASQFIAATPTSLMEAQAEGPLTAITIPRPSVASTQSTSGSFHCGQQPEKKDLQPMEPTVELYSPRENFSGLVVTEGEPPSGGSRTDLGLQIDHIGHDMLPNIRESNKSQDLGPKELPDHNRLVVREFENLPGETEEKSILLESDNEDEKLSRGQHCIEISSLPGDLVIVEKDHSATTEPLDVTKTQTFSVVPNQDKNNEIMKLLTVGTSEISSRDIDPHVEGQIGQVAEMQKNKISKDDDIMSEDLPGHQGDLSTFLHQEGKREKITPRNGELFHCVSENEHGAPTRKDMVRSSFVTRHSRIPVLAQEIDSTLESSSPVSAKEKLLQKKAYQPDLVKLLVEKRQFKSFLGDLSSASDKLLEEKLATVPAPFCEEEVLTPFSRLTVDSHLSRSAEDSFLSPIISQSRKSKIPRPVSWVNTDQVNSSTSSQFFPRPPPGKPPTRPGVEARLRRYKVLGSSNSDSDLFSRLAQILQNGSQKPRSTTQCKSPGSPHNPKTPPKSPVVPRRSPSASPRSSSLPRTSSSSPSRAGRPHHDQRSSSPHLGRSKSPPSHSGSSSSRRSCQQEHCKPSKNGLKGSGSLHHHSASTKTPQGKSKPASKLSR
To be noted: TTBK2, compound at 10 uM, duplicate values; for remaining activity at 10 µM: read-out: % Enzyme Activity (relative to DMSO controls).

Test [6] deals with T6, 382 unique human kinases (Homo sapiens, UniProt Q5VT25).
T6 construct: purchased Reaction Biology (HotSpot contract assay)
To be noted: kinase MRCKa/CDC42BPA, compound 10 uM; for remaining activity at 10 µM: read-out: % Enzyme Activity (relative to DMSO controls).

The target in test [7] is T7, 382 unique human kinases (Homo sapiens, UniProt Q02763, R849W).
T7 construct: purchased Reaction Biology (HotSpot contract assay)
T7 sequence (Q02763 23-1124 R849W): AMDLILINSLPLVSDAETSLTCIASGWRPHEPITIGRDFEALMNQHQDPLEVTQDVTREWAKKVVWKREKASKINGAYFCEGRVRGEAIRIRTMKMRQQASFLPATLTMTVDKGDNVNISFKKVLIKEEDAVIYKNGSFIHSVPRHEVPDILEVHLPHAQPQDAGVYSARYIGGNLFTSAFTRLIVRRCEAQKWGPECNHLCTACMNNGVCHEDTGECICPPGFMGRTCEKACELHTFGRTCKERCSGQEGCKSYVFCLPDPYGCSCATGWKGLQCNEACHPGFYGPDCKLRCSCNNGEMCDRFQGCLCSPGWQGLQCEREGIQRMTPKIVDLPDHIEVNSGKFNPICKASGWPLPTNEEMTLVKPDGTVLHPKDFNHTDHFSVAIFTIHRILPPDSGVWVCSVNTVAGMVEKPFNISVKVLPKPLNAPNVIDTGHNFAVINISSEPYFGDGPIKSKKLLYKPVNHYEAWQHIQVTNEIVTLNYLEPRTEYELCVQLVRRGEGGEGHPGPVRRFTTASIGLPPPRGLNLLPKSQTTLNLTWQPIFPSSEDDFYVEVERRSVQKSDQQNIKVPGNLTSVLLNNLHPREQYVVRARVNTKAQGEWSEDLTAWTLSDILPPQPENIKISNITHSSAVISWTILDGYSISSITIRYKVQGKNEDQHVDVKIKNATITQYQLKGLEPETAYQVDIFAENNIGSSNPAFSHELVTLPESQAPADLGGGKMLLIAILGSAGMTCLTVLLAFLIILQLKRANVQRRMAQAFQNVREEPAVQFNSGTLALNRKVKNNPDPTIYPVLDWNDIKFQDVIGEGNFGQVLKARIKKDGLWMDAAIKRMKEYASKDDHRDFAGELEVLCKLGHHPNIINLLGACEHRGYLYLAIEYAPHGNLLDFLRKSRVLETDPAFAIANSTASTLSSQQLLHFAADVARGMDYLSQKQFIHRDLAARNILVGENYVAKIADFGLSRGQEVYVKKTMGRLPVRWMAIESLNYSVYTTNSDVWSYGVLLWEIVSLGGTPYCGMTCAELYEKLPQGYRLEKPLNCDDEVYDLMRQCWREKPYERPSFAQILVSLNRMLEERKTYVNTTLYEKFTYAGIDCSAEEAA
Conditions: kinase TIE2 (R849W), compound 10 uM; for remaining activity at 10 µM: read-out: % Enzyme Activity (relative to DMSO controls).

The target of test [8] is T8, 382 unique human kinases (Homo sapiens, UniProt Q9P289).
T8 construct: purchased Reaction Biology (HotSpot contract assay)
T8 sequence (Q9P289 whole entry): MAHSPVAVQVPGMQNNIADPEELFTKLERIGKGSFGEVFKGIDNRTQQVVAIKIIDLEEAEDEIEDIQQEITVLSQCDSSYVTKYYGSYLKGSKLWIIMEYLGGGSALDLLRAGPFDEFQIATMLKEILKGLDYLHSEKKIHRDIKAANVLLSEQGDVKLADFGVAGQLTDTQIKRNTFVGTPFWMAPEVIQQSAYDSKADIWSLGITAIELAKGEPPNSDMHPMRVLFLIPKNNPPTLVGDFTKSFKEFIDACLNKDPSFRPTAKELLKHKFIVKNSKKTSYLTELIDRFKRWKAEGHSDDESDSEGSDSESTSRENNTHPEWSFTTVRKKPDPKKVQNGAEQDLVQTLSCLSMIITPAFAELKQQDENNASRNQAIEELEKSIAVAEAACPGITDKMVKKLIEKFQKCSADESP
Conditions: MST4, 10 uM; for remaining activity at 10 µM: read-out: % Enzyme Activity (relative to DMSO controls).

Test [9] addresses T9, 382 unique human kinases (Homo sapiens, UniProt Q13153).
T9 construct: purchased Reaction Biology (HotSpot contract assay)
To be noted: PAK1, 10 uM; for remaining activity at 10 µM: read-out: % Enzyme Activity (relative to DMSO controls).

For test [10], the target named is T10, 382 unique human kinases (Homo sapiens, UniProt P00519, Y253F).
T10 construct: purchased Reaction Biology (HotSpot contract assay)
To be noted: ABL1 (Y253F), [ATP] 15 µM, compound 10 uM; for remaining activity at 10 µM: read-out: % Enzyme Activity (relative to DMSO controls).

The target of test [11] is T11, 382 unique human kinases (Homo sapiens, UniProt P51956).
T11 construct: purchased Reaction Biology (HotSpot contract assay)
T11 sequence (P51956 1-506): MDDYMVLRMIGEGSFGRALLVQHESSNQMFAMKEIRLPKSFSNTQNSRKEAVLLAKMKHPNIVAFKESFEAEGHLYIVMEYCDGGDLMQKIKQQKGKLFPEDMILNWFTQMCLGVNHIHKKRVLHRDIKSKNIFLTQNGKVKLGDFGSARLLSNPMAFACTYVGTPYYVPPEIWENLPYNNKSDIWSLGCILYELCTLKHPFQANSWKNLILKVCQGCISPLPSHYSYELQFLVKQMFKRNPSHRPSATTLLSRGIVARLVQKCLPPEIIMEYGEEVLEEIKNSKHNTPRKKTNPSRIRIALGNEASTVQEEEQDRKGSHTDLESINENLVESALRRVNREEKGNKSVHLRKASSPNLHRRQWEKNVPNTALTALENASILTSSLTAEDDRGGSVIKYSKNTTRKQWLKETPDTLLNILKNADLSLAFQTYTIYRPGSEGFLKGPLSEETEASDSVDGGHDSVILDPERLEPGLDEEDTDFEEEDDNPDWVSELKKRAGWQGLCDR
Conditions: NEK3, 10 uM; for remaining activity at 10 µM: read-out: % Enzyme Activity (relative to DMSO controls).

Test [12] has as its target T12, 382 unique human kinases (Homo sapiens, UniProt P00533, G719D).
T12 construct: purchased Reaction Biology (HotSpot contract assay)
To be noted: EGFR (G719D), 10 uM; for remaining activity at 10 µM: read-out: % Enzyme Activity (relative to DMSO controls).

Test [13] addresses T13, 382 unique human kinases (Homo sapiens, UniProt Q9H0K1).
T13 construct: purchased Reaction Biology (HotSpot contract assay)
To be noted: SIK2, [ATP] 30 µM.

The target of test [14] is T14, 382 unique human kinases (Homo sapiens, UniProt P46734).
T14 construct: purchased Reaction Biology (HotSpot contract assay)
T14 sequence (P46734 1-347): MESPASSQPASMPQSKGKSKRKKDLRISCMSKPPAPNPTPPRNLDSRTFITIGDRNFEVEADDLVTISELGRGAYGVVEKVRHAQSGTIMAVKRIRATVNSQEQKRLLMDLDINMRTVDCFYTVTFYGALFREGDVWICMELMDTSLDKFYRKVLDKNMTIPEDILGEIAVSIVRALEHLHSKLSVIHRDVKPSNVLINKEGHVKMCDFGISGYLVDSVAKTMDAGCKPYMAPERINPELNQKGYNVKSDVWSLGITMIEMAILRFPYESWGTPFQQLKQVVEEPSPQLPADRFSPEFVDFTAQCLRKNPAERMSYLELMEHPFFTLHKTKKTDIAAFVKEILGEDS
To be noted: MEK3, 10 uM; for remaining activity at 10 µM: read-out: % Enzyme Activity (relative to DMSO controls).

Setting [15] is: compound 10 uM, read-out: % Enzyme Activity (relative to DMSO controls).

This is an account of results in publication PMC8550792, “Evolution of kinase polypharmacology across HSP90 drug discovery” (Cell Chemical Biology, 2021).

T1 sequence (P07949 29-1114 V804M): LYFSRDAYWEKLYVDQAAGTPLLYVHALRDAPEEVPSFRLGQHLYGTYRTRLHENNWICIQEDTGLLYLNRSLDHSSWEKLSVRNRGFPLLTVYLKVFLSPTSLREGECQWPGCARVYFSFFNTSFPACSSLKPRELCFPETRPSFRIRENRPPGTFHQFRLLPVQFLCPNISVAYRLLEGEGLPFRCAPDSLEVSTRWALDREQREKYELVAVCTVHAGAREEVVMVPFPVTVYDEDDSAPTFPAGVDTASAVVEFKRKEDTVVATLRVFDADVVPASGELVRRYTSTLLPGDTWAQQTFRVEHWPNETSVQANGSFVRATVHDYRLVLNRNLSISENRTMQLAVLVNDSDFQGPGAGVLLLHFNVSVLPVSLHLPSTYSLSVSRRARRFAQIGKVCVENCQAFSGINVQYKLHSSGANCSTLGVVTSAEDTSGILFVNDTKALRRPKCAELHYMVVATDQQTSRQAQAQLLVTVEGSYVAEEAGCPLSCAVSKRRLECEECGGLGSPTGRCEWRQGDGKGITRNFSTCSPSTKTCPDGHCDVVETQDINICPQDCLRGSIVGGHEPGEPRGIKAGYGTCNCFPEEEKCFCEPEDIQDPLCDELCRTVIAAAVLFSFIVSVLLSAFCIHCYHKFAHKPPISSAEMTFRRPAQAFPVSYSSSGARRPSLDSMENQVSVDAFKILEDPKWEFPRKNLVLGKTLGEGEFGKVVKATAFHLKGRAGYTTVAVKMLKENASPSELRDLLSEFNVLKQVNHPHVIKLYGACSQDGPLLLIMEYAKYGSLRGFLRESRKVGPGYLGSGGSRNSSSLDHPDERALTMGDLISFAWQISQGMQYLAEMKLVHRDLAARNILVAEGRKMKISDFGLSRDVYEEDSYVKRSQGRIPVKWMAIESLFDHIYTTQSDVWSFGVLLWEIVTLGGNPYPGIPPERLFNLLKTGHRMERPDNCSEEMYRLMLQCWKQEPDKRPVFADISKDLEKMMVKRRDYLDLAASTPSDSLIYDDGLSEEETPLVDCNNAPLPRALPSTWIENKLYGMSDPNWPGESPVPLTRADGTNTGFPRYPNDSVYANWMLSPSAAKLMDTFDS
T9 sequence (Q13153 whole entry): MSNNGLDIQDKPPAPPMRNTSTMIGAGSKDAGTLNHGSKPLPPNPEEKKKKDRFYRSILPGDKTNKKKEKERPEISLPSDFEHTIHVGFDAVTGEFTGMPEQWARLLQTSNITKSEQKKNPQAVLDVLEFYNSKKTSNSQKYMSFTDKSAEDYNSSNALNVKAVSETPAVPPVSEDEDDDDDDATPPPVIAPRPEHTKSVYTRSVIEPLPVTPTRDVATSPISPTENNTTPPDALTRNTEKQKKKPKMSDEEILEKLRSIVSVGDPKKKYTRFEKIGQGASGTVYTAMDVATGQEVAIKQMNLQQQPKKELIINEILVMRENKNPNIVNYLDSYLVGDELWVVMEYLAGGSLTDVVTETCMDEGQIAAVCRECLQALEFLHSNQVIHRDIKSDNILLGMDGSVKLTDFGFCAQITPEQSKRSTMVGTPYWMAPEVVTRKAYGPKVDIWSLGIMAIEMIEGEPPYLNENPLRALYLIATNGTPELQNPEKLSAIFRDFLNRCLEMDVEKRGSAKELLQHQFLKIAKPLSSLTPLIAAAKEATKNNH

As for `CC(C)c1cc(-c2n[nH]c(=O)n2-c2ccc3c(ccn3C)c2)c(O)cc1O` [Ganetespib (STA9090)], the remaining activity at 10 µM at 382 unique human kinases [1] came to 81%; at 382 unique human kinases [2] it was 66.7%; at 382 unique human kinases [3], 91.5%; on 382 unique human kinases [4] it was 108%; at 382 unique human kinases [5], 124%; at 382 unique human kinases [6], 87.6%. On 382 unique human kinases [7], the remaining activity at 10 µM was 83.1%.

For `CC(C)c1cc(-c2n[nH]c(=O)n2-c2ccc3c(ccn3C)c2)c(O)cc1O` [Ganetespib], the remaining activity at 10 µM stood at 93.8% on 382 unique human kinases [8]; 97.2% on 382 unique human kinases [9]; 3.72% on 382 unique human kinases [10]; 117% at 382 unique human kinases [11]; 104% at 382 unique human kinases [12]; 4.64% on 382 unique human kinases [13] (setting [15]). For the same molecule, the remaining activity at 10 µM at 382 unique human kinases [14] was 103%. Further, on 382 unique human kinases [13] (compound 1 uM, read-out: % Enzyme Activity (relative to DMSO controls)), the remaining activity at 1 µM came to 70.2%.

Take `CCNC(=O)c1noc(-c2cc(C(C)C)c(O)cc2O)c1-c1ccc(CN2CCOCC2)cc1` [Luminespib (AUY-922)]: the “% Enzyme Activity (relative to DMSO controls)” value worked out at 97.95% on 382 unique human kinases [1]; 102.97% on 382 unique human kinases [2]; 61.22% at 382 unique human kinases [3]; 105.32% on 382 unique human kinases [4]; 121.05% at 382 unique human kinases [5]; 98.43% at 382 unique human kinases [6]. Also, the “% Enzyme Activity (relative to DMSO controls)” value on 382 unique human kinases [7] turned out to be 89.68%. Further, the remaining activity at 10 µM came to 98.7% at 382 unique human kinases [1]; 104% at 382 unique human kinases [2]; 73.8% at 382 unique human kinases [3]; 107% on 382 unique human kinases [4]; 122% on 382 unique human kinases [5]; 99.7% at 382 unique human kinases [6]. Further, at 382 unique human kinases [7], the remaining activity at 10 µM came to 90.9%.

On to `CCNC(=O)c1noc(-c2cc(C(C)C)c(O)cc2O)c1-c1ccc(CN2CCOCC2)cc1` [Luminespib], for which the “% Enzyme Activity (relative to DMSO controls)” value on 382 unique human kinases [8] came out at 93.01%; at 382 unique human kinases [9] it was 101.44%; on 382 unique human kinases [10], 4.48%; on 382 unique human kinases [11] it was 90.60%; on 382 unique human kinases [12] it was 97.19%; at 382 unique human kinases [13] (compound 10 uM) it was 80.93%. In addition, the “% Enzyme Activity (relative to DMSO controls)” value at 382 unique human kinases [14] is given as 95.40%. Moreover, the remaining activity at 10 µM at 382 unique human kinases [8] came out at 95.1%; at 382 unique human kinases [9], 102%; on 382 unique human kinases [10], 5.44%; at 382 unique human kinases [11] it was 91.5%; at 382 unique human kinases [12], 99%; on 382 unique human kinases [13] (setting [15]), 81.2%. In addition, the remaining activity at 10 µM on 382 unique human kinases [14] amounted to 96.8%.
